The text below walks through data of ChEMBL document CHEMBL1134007, “Synthesis and structure-activity relationships of 1-phenylpyrazoles as xanthine oxidase inhibitors” (Bioorg Med Chem Lett, 2001).

Each structure is given as a SMILES string.

In data set [1] the target is T1, Xanthine dehydrogenase/oxidase (Bos taurus, UniProt P80457). Briefly: In vitro inhibitory concentration against Xanthine oxidase.
Data set [2] deals with T1, Xanthine dehydrogenase/oxidase. Briefly: In vitro percent inhibition against Xanthine oxidase at concentration of 10000 nmol/L.
Data set [3] is described as follows: Tmax determined after 0.3 mg/kg oral administration in potassium oxonate treated rats. The format is ADME, organism-based. Also noted: dose 0.3 mg/kg, route oral. The conditions noted are these: rat, in vivo.
For data set [4], the system named is Rattus norvegicus. Briefly: Tested for hypouricemic effect in potassium oxonate (uricase inhibitor) treated (po) rats for 0-6 hr expressed as ED20. The class given is functional.
Data set [5] in a line: In vivo CL/F determined. The class given is ADME, organism-based. The following applies: rat.
Data set [6] can be described thus: Tmax determined after 3 mg/kg oral administration in potassium oxonate treated rats. The class given is ADME, organism-based. Also noted: dose 3 mg/kg, route oral. The following applies: rat, in vivo.
Data set [7] deals with Rattus norvegicus. Kind of data set: Tested for hypouricemic effect in potassium oxonate (uricase inhibitor) treated (po) rats for 0-24 hr expressed as ED20. The format is functional.
In data set [8] the test system is Rattus norvegicus. Briefly: Tested for hypouricemic effect in potassium oxonate (uricase inhibitor) treated (po)rats for 0-6 hr expressed as ED20. The format is functional.

T1 sequence (P80457 whole entry): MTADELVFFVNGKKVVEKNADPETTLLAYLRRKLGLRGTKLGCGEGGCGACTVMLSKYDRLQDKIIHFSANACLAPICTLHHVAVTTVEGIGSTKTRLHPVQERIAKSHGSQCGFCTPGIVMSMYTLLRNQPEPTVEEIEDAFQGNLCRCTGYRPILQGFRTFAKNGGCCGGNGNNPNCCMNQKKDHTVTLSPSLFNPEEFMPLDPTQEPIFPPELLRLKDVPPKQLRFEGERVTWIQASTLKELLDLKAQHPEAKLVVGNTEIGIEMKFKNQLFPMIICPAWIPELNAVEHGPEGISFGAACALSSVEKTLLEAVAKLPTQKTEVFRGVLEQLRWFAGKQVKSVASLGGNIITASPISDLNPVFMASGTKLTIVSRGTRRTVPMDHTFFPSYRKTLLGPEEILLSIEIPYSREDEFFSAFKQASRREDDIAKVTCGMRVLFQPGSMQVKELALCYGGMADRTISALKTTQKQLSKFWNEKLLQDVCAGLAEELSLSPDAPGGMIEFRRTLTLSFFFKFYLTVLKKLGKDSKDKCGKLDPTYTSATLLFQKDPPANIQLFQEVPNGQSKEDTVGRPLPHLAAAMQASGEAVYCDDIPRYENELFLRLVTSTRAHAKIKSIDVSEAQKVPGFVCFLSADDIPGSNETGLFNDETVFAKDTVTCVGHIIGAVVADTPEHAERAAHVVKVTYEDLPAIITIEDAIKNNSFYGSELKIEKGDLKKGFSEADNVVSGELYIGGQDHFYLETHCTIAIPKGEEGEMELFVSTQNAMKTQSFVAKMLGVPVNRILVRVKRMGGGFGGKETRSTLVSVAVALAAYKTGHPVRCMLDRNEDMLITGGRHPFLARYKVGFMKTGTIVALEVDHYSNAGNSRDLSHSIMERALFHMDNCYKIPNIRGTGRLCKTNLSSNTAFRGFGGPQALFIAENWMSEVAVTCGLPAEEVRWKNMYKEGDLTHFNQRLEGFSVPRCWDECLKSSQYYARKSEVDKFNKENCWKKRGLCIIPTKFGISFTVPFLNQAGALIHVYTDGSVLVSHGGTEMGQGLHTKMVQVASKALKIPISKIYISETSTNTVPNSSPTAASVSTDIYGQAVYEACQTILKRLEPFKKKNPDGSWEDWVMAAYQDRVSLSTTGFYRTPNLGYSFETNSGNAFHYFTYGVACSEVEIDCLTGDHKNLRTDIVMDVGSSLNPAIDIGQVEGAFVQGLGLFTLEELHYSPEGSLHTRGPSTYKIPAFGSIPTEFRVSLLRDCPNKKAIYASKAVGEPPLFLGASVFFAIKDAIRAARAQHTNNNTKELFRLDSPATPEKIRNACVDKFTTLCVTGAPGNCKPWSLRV

The molecule `CC(C)COc1ccc(-n2cc(C(=O)O)cn2)cc1[N+](=O)[O-]` yielded an IC50 in data set [1] of 33 nM. For `COc1ccc(-n2cc(C(=O)O)cn2)cc1`, in data set [2], the inhibition at 10 µM is less than 50%.

In turn, `O=C(O)c1cnn(-c2ccc(Cl)cc2)c1` came in with an inhibition at 10 µM in data set [2] of less than 50%. Regarding `N#Cc1cc(-n2cc(C(=O)O)cn2)ccc1OCC(=O)O`, in data set [1], the IC50 is 1500 nM. As to `CC(C)COc1ccc(-n2cc(C(=O)O)cn2)cc1C#N`, the Tmax in data set [3] is 1.1 h; in data set [6] it was 1.3 h. The values for the ED20 in the data set with Rattus norvegicus [4] and in the data set with Rattus norvegicus [7] were 2.5 mg/kg and more than 10 mg/kg, respectively. In addition, the CL/F in data set [5] is 9.83 mL/min/kg. For the molecule `Oc1ncnc2[nH]ncc12` [ALLOPURINOL], the ED20 is 3.5 mg/kg in the data set with Rattus norvegicus [8] and more than 10 mg/kg in the data set on Rattus norvegicus [7]. Regarding `COc1ccc(-n2cc(C(=O)O)cn2)cc1C#N`, in data set [1], the IC50 was 460 nM. For the molecule `CC(C)(C)COc1ccc(-n2cc(C(=O)O)cn2)cc1C#N`, the Tmax in data set [3] and in data set [6] was 3.5 h in each case. Also, the ED20 with Rattus norvegicus [4] stood at 0.55 mg/kg; in the data set on Rattus norvegicus [7], 1.4 mg/kg. In data set [5], this molecule gave a CL/F of 2 mL/min/kg. Take `CCOC(=O)c1cnn(-c2ccc(OCC(C)C)c(C#N)c2)c1`: the inhibition at 10 µM in data set [2] was less than 50%. In turn, `CN(C)CCOc1ccc(-n2cc(C(=O)O)cn2)cc1C#N` gave an IC50 in data set [1] of 700 nM.

In general, IC50 refers to the midpoint of a concentration-inhibition curve. Read a high IC50 as a need for much substance. In general, inhibition refers to how much of the control response was suppressed. Lower therefore signals little suppression. What is called Tmax is the time at which the peak concentration occurs. One may read the CL/F as clearance divided by bioavailability, as obtained after extravascular dosing.
